In US20240252581A1, “COMPOSITIONS AND METHODS FOR TREATING RESPIRATORY DISTRESS” (S.I.S. SHULOV INNOVATIVE SCIENCE LTD., priority 2021, published 2024):
Several values for one entry are separate records, joined by “and”; a condition that tells them apart may be missing. Identical values can stand only once. Square brackets hold non-standard residues; d marks the D form. Peptide text beside a SMILES is read from it. * marks the point of attachment. pGlu = O=C1CC[C@@H](C(=O)O)N1; Octanoyl = CCCCCCCC(=O)*

Assay: Oxygen saturation in mouse model of LPS-inflamed lungs (Rodent Pulse Oximeter)
Format: in vivo, Balb/C female mice
Conditions: for Oxygen saturation, group mean: mean of 10 mice; for Oxygen saturation, individual mouse: single animals
Protocol: Evaluation of the effect of ZEP3Na administration via inhalation on oxygen saturation in a mouse model of inflamed lungs by the lipopolysaccharides (LPS) was performed. Oxygen saturation testing was performed at several time points on mice that have been anesthetized by isoflurane. A sensor was attached to the hind foot of the mice and the percentage of oxygen in the blood was measured using the Rodent Pulse Oximeter instrument (Kent Scientific).
Following LPS intratracheal instillation, a marked reduction in blood oxygen saturation levels was detected. ZEP3Na was then administered by inhalation at two doses 6 h and 14 h after LPS administration and the effect of ZEP3Na on blood oxygen saturation was monitored 0, 2, 6, 12, 24 and 48 hours following ZEP3Na administration. Saturation data was analyzed by ANOVA followed by Tukey-Kramer test. Significance level was defined as ∝=0.05.

[1] = Group 2: LPS 800 μg + ZEP3Na 10 mg by inhalation at 6 h, time point 0 h
[2] = Group 2: LPS 800 μg + ZEP3Na 10 mg by inhalation at 6 h, time point 2 h
[3] = Group 2: LPS 800 μg + ZEP3Na 10 mg by inhalation at 6 h, time point 6 h
[4] = Group 2: LPS 800 μg + ZEP3Na 10 mg by inhalation at 6 h, time point 12 h
[5] = Group 2: LPS 800 μg + ZEP3Na 10 mg by inhalation at 6 h, time point 24 h
[6] = Group 2: LPS 800 μg + ZEP3Na 10 mg by inhalation at 6 h, time point 48 h
[7] = Group 3: LPS 800 μg + ZEP3Na 10 mg by inhalation at 6 h + 14 h, time point 0 h
[8] = Group 3: LPS 800 μg + ZEP3Na 10 mg by inhalation at 6 h + 14 h, time point 2 h
[9] = Group 3: LPS 800 μg + ZEP3Na 10 mg by inhalation at 6 h + 14 h, time point 6 h
[10] = Group 3: LPS 800 μg + ZEP3Na 10 mg by inhalation at 6 h + 14 h, time point 12 h
[11] = Group 3: LPS 800 μg + ZEP3Na 10 mg by inhalation at 6 h + 14 h, time point 24 h
[12] = Group 3: LPS 800 μg + ZEP3Na 10 mg by inhalation at 6 h + 14 h, time point 48 h
[13] = Group 4: LPS 800 μg + ZEP3Na 50 mg by inhalation at 6 h, time point 0 h
[14] = Group 4: LPS 800 μg + ZEP3Na 50 mg by inhalation at 6 h, time point 2 h
[15] = Group 4: LPS 800 μg + ZEP3Na 50 mg by inhalation at 6 h, time point 6 h
[16] = Group 4: LPS 800 μg + ZEP3Na 50 mg by inhalation at 6 h, time point 12 h
[17] = Group 4: LPS 800 μg + ZEP3Na 50 mg by inhalation at 6 h, time point 24 h
[18] = Group 4: LPS 800 μg + ZEP3Na 50 mg by inhalation at 6 h, time point 48 h
[19] = Group 5: LPS 800 μg + ZEP3Na 50 mg by inhalation at 6 h + 14 h, time point 0 h
[20] = Group 5: LPS 800 μg + ZEP3Na 50 mg by inhalation at 6 h + 14 h, time point 2 h
[21] = Group 5: LPS 800 μg + ZEP3Na 50 mg by inhalation at 6 h + 14 h, time point 6 h
[22] = Group 5: LPS 800 μg + ZEP3Na 50 mg by inhalation at 6 h + 14 h, time point 12 h
[23] = Group 5: LPS 800 μg + ZEP3Na 50 mg by inhalation at 6 h + 14 h, time point 24 h
[24] = Group 5: LPS 800 μg + ZEP3Na 50 mg by inhalation at 6 h + 14 h, time point 48 h
[25] = administration by inhalation, 800 μg LPS

In the case of `CCCCCCCC(=O)NCCCC[C@H](NC(=O)[C@H](Cc1c[nH]c2ccccc12)NC(=O)[C@H](CC(N)=O)NC(=O)[C@@H]1CCC(=O)N1)C(=O)O` [ZEP3Na, pGlu-Asn-Trp-Lys(Octanoyl)-ONa] ([pGlu]NWK(Octanoyl)-OH), the “Oxygen saturation, group mean” value [1] is reported as 97.2%, the “Oxygen saturation, individual mouse” value [1] is reported as 99% (4×) and 93% and 97% and 98% (2×) and 95% (2×) and the “Oxygen saturation, group mean” value [2] is reported as 70.0%. For the same compound, the “Oxygen saturation, individual mouse” value [2] was 77% and 67% and 78% (2×) and 61% and 71% and 59% and 72% and 74% and 63%, the “Oxygen saturation, group mean” value [3] was 86.2% and the “Oxygen saturation, individual mouse” value [3] was 81% and 88% (2×) and 87% (2×) and 91% and 82% and 84% and 85% and 89%. The “Oxygen saturation, group mean” value [4] was 93.5%, the “Oxygen saturation, individual mouse” value [4] was 92% (2×) and 96% and 95% (2×) and 93% and 90% and 94% (3×) and the “Oxygen saturation, group mean” value [5] was 89.0%. For the same compound, the “Oxygen saturation, individual mouse” value [5] was 86% (2×) and 87% and 89% and 88% and 90% (2×) and 83% and 92% and 99%, the “Oxygen saturation, group mean” value [6] was 92.9% and the “Oxygen saturation, individual mouse” value [6] was 91% (5×) and 94% and 97% (3×) and 89%. For the same compound, the “Oxygen saturation, group mean” value [7] was 96.2%, the “Oxygen saturation, individual mouse” value [7] was 97% (2×) and 96% and 99% (2×) and 94% (2×) and 93% and 95% and 98% and the “Oxygen saturation, group mean” value [8] was 71.1%. The “Oxygen saturation, individual mouse” value [8] was 70% and 68% and 71% (2×) and 80% and 73% and 64% and 75% and 62% and 77%, the “Oxygen saturation, group mean” value [9] was 87.1% and the “Oxygen saturation, individual mouse” value [9] was 86% (2×) and 88% (2×) and 89% (2×) and 92% and 81% and 82% and 90%. The “Oxygen saturation, group mean” value [10] was 92.5%, the “Oxygen saturation, individual mouse” value [10] was 92% (2×) and 90% (2×) and 94% and 97% and 95% and 88% and 91% and 96% and the “Oxygen saturation, group mean” value [11] was 92.1%. The “Oxygen saturation, individual mouse” value [11] was 96% (2×) and 94% and 88% and 86% and 93% (3×) and 92% and 90%, the “Oxygen saturation, group mean” value [12] was 93.0% and the “Oxygen saturation, individual mouse” value [12] was 91% (4×) and 92% (2×) and 97% (2×) and 94% (2×). The “Oxygen saturation, group mean” value [13] was 97.2%, the “Oxygen saturation, individual mouse” value [13] was 95% (3×) and 97% (3×) and 99% (4×) and the “Oxygen saturation, group mean” value [14] was 72.7%. For the same compound, the “Oxygen saturation, individual mouse” value [14] was 69% and 81% and 72% (2×) and 73% and 79% (2×) and 65% and 66% and 71%, the “Oxygen saturation, group mean” value [15] was 86.7% and the “Oxygen saturation, individual mouse” value [15] was 86% (3×) and 90% and 88% (2×) and 87% (2×) and 85% and 84%. For the same compound, the “Oxygen saturation, group mean” value [16] was 94.5%, the “Oxygen saturation, individual mouse” value [16] was 93% and 89% and 94% (3×) and 95% and 96% (3×) and 98% and the “Oxygen saturation, group mean” value [17] was 94.0%. The “Oxygen saturation, individual mouse” value [17] was 93% (2×) and 94% and 95% (2×) and 90% and 99% and 92% (2×) and 97%, the “Oxygen saturation, group mean” value [18] was 97.0% and the “Oxygen saturation, individual mouse” value [18] was 93% and 95% and 98% (5×) and 99% and 97% and 96%. The “Oxygen saturation, group mean” value [19] was 96.6%, the “Oxygen saturation, individual mouse” value [19] was 97% (3×) and 94% (2×) and 96% and 99% (2×) and 98% and 95% and the “Oxygen saturation, group mean” value [20] was 71.8%. For the same compound, the “Oxygen saturation, individual mouse” value [20] was 63% and 71% and 69% and 92% and 73% and 75% and 72% and 76% and 66% and 61%, the “Oxygen saturation, group mean” value [21] was 86.8% and the “Oxygen saturation, individual mouse” value [21] was 88% (2×) and 90% and 84% and 89% and 86% (2×) and 85% (2×) and 87%. For the same compound, the “Oxygen saturation, group mean” value [22] was 94.0%, the “Oxygen saturation, individual mouse” value [22] was 92% and 94% (3×) and 90% and 93% and 95% (2×) and 96% and 97% and the “Oxygen saturation, group mean” value [23] was 93.8%. The “Oxygen saturation, individual mouse” value [23] was 90% and 91% (3×) and 93% (2×) and 98% (2×) and 99% and 94%, the “Oxygen saturation, group mean” value [24] was 97.1% and the “Oxygen saturation, individual mouse” value [24] was 99% (3×) and 97% (3×) and 91% and 98% (2×) and 96%. The “elevation in oxygen saturation levels as compared to LPS with no treatment” value [25] was no more than 20%, the “oxygen saturation levels that have been reduced by LPS” value [25] was “significantly increased” and the “time following treatment at which increase in oxygen saturation is statistically significant” value (administration by inhalation, LPS model) was 12 h. For the same compound, the animal weight (throughout the experiment) was “substantially constant”.
